Data on one compound can be found in article PMC3684443 (ACS chemical biology, 2012).

For one test, the system named is HNSCC. The note with it: cited from earlier work.
Test [1] concerns HNSCC cell line 1483 xenograft tumors. As to the kind of experiment: Antitumor effect in HNSCC xenograft model, tumor volume. The format is in vivo, Athymic nude mice. The note with it: 2 weeks treatment, comparison between the three treated groups.

Structures are written as SMILES.

`C#Cc1cccc(Nc2ncnc3cc(OCCOC)c(OCCOC)cc23)c1` [erlotinib]: in the test with HNSCC (HNSCC and NSCLC patients), the Clinical response rate was 4%. The Disease stabilization with HNSCC (phase II trial, for 16 weeks) was 38%. Besides, the Response rate in the test on HNSCC (phase II trial) is listed as 4%. Further, the “Response among erlotinib, cetuximab and EGFRAS-GPNA groups” value in test [1] is “no significant difference”.
